Source: US20040142379A1, “Affinity fishing for ligands and proteins receptors” (Carlsberg Research Laboratory, priority 2003, published 2004)
“Also recorded” adds a separate entry of the source. No end group written: not given here.

The substances below were run on six protein mixture: Con A, P. sativum lectin, L. culinaris lectin, W. floribunda lectin, Glyceraldehyde 6-phosphate, and bovine serum albumin (BSA) (assay: not given). Conditions: proteins eluted from ligand on PEGA6000 resin with 0.5 M mannose and/or N-acetylglucosamine.
Protocol: The ligand-resin was washed with 10 mM PBS buffer, pH 6.8 containing 1 mM CaCl2 and 1 mM MnCl2. A mixture of unlabelled proteins, Glycerol-3-phosphate: BSA: Wisteria floribunda: Lens culinaris: Pisatum sativum in a […] weight ratio was dissolved in 10 mM PBS buffer, pH 6.8 containing 1 mM CaCl2 and 1 mM MnCl2 The protein mix (3.5 mL, ca. 1.2 mg protein) was applied to each ligand column and allowed to bind overnight. The column was washed with the same buffer until no more protein was eluted (Abs 280 nm). Bound protein was eluted from the column using 0.5M mannose in 10 mM PBS buffer, pH 8.0 containing CaCl2 and 1 mM MnCl2 (buffer filtered to remove CaOH2 formed) for glycopeptides containing only mannose, 0.5 M N-acetylglucosamine in 10 […] mM PBS buffer, pH 8.0 containing CaCl2 and 1 mM MnCl2 (buffer filtered to remove CaOH2 formed) for glycopeptides containing only GlcNAc, and both buffers for glycopeptides containing both mannose and GlcNAc, or for unglycosylated peptides. Samples were obtained in about 700 μL volume and frozen for later protein identification.

Substance | Identified Protein(s)
GPKKYH | Con A, P. sativum lectin,; also recorded: L. culinaris lectin
GlcNN-Trp-Phe-Asp-Trp-Pro | Con A
GlcNN-Val-GlcNN-His-ManS-Gly | Con A, P. sativum lectin
ManN-ManS-ManN-Trp-Ser-Trp | Con A, P. sativum lectin,; also recorded: L. culinaris lectin
ManN-Phe-Trp-Ser-Lys-His | Con A, P. sativum lectin
ManS-GIy-GlcNN-Asn-ManS-Tyr | Con A, P. sativum lectin,; also recorded: L. culinaris lectin
ManS-Gly-ManS-Asp-Asn-Ala | Con A, P. sativum lectin

What follows are substances tested on E. coli membrane proteins (assay: Solid phase screening of Library 2 with E. coli membrane proteins; on-bead tryptic digest and protein identification). Conditions: proteins bound to resin-bound Library 2 ligand; LA low abundance, M inner or outer membrane, P periplasmic space.
Assay type: binding, Escherichia coli DH 5α-136
Protocol: A 400 mL culture of Escherichia coli DH 5α-136 (Carlsberg Research Center Collection) was prepared according to the procedures described in Hanahan, 1985, In: DNA Cloning, Vol 1, Glover, D., ed., IRL Press Ltd, pp. 109-135. Cells were grown from innocula in LB media at 37° C. for 5 to 6 hours and harvested in the latter log phase at an optical density of 0.8 (600 nm) by centrifugation (10,000 rpm for 10 minutes at 4° C.). The media containing extracellular protein was retained and the pellet washed once with PBS, pH 7.6 (cellular weight=2.22 g).
Isolation of E. coli membrane proteins was achieved through modification of published literature procedures: Auer, et al., 2001, Biochemistry, 40:6628-6635, and Molloy, et al., 2000, Eur. J. Biochem. 267:2871-2881. After incubation of E. coli cells for 2 days, washed cells were scraped from plates and centrifuged as described above for Example 10. The cell pellet (approximately 1 g) was suspended in 50 mM Tris HCl, pH 7.5 and pressed (2×) in a French Press at 1500 Psi. The resulting suspension was centrifuged at 2500×g for 10 minutes. The ice cold supernatant was diluted with 2.5 ml of ice-cold 0.1 M sodium carbonate buffer 11 and the solution stirred on ice for 1 hour. Ultracentrifugation was then carried out at 115, 000×g for 1 to 1.5 hours at 4° C., yielding Pellet 1 and Supernatant 1. The membrane pellet 1 was resuspended in 50 mM Tris HCl, pH 7.5 and the pellet was recollected after centrifugation for an additional 20 minutes at 115,000×g, yielding Pellet 2 and supernatant 2. Pellet 2 was solubilized in 50 mM Tris HCl, pH 7.5 containing 10 mM imidazole, 0.5 mM PMSF, 20% glycerol, and 1% Dodecyl Maltoside (DDM) or 33 mM Octyl Glucoside (OG) for 30 minutes at 4° C. The suspension was then centrifuged for 10,000 g for 30 minutes. The pellet and supernatant obtained were labeled Pellet 3 and supernatant 3.
Protein content was determined by checking the absorbance of the protein at 280 nm. The protein concentration in the DDM sample was 0.93 mg/mL, while in the OG sample 0.07 mg/mL protein was obtained.
The protein was labeled with amino reactive succinylanthranilate dye (blue) DDM (0.49 mg dye) and OG (0.03 mg dye) according to the same protocol used in the extracellular labeling described above for Example 12. The labeling stopping reaction (hydroxylamine hydrochloride addition) was not used in this case, to avoid dilution of the protein. The mixture was dialyzed overnight against 10 mM PBS buffer, pH 6.8 containing 0.01 mM ZnCl2, 0.01 mM CaCl2, 0.01 mM MnCl2, and 0.01 mM MnSO4, against a three time buffer change.
The ligand library was then washed, and E. coli labeled membrane protein, prepared as described above for Example 13, was added (0.1 ml). The ligand library and protein mixture was incubated overnight at room temperature.
A typical analysis employed 100-300 laser shots.
Beads containing 40 different specific ligands that bind E. coli protein, the binding ligands isolated by the process described for Example 16 and identified as described for Example 19, were placed into 40 wells of a Multiwell filter plate (Multiscreen DV plates, Millipore). Control beads containing PEGA4000 resin plus the spacer and linker with no ligand compound were used. The binding of unlabeled E. coli proteins was carried out in duplicate. The ligand beads were washed with Millipore water for 3×5 minutes and then with 10 mM PBS buffer (as described for Example 15) for 3×5 minutes under vacuum. Unlabeled E. coli protein, produced as described for Example 13, (400 μg) was added to each well and incubated at room temperature overnight. The next day, the unbound protein solution from each well was removed under suction and the beads were washed with Millipore water and buffer respectively for 3×5 minutes under vacuum.
Protein was cleared from beads containing protein-ligand binding “positive hits” isolated as described for Examples 21 (myocyte proteins) and 22 (E. coli proteins). […]

Substance | Identified Protein(s)
T(Sa)-F-A-L-V | Chaperone DnaK, putative hydrolase, transposase
T(Sa)-F-G-I-M | Transposase, transcriptional regulator (LA), GroEL, protein involved in the taurine; also recorded: transport system (M)
T(Sa)-F-G-I-W | Histidine synthetase, aspartate carbamoyl transferase, protein involved in permease; also recorded: transport system (M)
T(Sa)-F-G-L-M | Hemolysin C, high affinity potassium transport system (M), quinone oxidoreductase; also recorded: (M), ferrodoxin dependent NA(D)PH oxidoreductase (M)
T(Sa)-F-N-H-S | Phosphate acetyl transferase, acid shock protein, molybdopterin converting factor; also recorded: subunit
T(Sa)-F-V-W-H | NADH dehydrogenase (M), protein involved in flagellar biosynthesis and motor; also recorded: switching component (M); also recorded: Lysine-arginine-ornithine-binding protein (P), ATP-binding component of glycine-; also recorded: betaine-proline transport protein (P)
T(Sa)-G-V-F-L | 50 S ribosomal protein, heme binding lipoprotein (M), regulator for D-glucarate, D- and glycerate and D-galactarate, glutamine tRNA synthetase
T(Sa)-H-I-G-Y | Fimbrial subunit, outer membrane pyruvate kinase (LA, M)
T(Sa)-H-L-G-Y | Protein involved in lipopolysaccharide biosynthesis (M), phosphomannose isomerase
T(Sa)-H-W-H-I | Mannose-1-phosphate guanyl transferase, isopropyl malate dehydrogenase (M)
T(Sa)-H-W-H-L | Chorismate mutase, xanthine dehydrogenase, carbamoyl phosphate synthetase
T(Sa)-H-W-V-V | Pyruvoyl dependent aspartate decarboxylase, colicin E2, Histidine kinase (M)
T(Sa)-I-Y-L-F | Membrane bound ATP synthetase (M), ATP hydrolase
T(Sa)-L-S-W-W | NAD-dependent 7-alpha-hydroxysteriod dehydrogenase, homocysteine transferase,; also recorded: nitrate reductase (P), lactate dehydrogenase, citrate synthetase
T(Sa)-L-Y-I-F | Colicin, hypothetical membrane protein (M) outer membrane lipoprotein (M),; also recorded: arylsulfatase
T(Sa)-L-Y-L-F | Fimbrial protein precursor, alkaline phosphatase (P), cytochrome related proteins (P),
T(Sa)-M-V-N-W | ATP dependent helicase, mob C
T(Sa)-W-V-N-M | Transposase, inner membrane protein for phage attachment (M)
T(Sa)-Y-S-M-P | Biotin synthetase, UDP-glucose dehydrogenase, tyrosine protein kinase (LA), fatty; also recorded: acid oxidase complex proteins
